The target in the test is T1, FtpM (WT FtpM) (Aspergillus fumigatus, UniProt Q4WZ45).
T1 construct: gene AFUA_3G15280; codon-optimised gene in pET-based golden gate vector, C-terminal His tag, expressed in E. coli, HisTrap purified; monomer and dimer modelled by AlphaFold 2
T1 sequence (Q4WZ45 1-282): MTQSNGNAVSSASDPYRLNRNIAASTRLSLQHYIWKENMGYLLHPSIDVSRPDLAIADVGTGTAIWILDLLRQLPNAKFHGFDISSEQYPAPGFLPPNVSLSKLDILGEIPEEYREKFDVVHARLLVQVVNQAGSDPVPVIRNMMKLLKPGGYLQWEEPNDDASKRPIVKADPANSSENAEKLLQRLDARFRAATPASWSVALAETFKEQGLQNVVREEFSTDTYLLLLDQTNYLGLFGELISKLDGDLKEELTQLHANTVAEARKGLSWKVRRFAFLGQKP
The test is described as follows: steady-state kinetics of carboxyl methylation (Michaelis-Menten; previously reported method). The format is biochemical. To be noted: co-substrate SAM, kinetic assay conditions not printed (reactions: 50 mM MES pH 6.0, 25 °C).

Our source for the Km values is paper PMC10946451, “Engineering a Carboxyl Methyltransferase for the Formation of a Furan‐Based Bioplastic Precursor” (Chemsuschem, 2023).

Each structure is given as a SMILES string.

In the case of `COC(=O)c1ccc(C(=O)O)o1` [compound 3, FMME], where the note is “second methylation”, the Km amounted to 1400 µM.
Take `O=C(O)c1ccc(C(=O)O)o1` [compound 2, 2,5-furandicarboxylic acid]: the Km (first methylation) was 520 µM.

What is called Km is the concentration of substrate that gives half-maximal velocity.
